According to patent US20250276026A1, “TRANSIENT COMMENSAL MICROORGANISM FOR IMPROVING GUT HEALTH” (INFINANT HEALTH, INC, priority 2016, published 2025):

Test system: Clostridium difficile
Assay: Outbreak of Clostridium difficile hemorrhagic diarrhea in newborn foals; probiotic formulation vs standard of care
Format: in vivo
Conditions: all animals dosed at birth with 6.6 mg/kg
Protocol: Newborn foals born to mares at a large horse breeding barn were monitored during an outbreak of severe hemorrhagic diarrhea among the foals. […] Seventeen foals were born during the initial phase of the outbreak, of which fifteen animals became ill and required intervention according to the standard of care as described in the Merck Veterinary Manual. Standard of care involved metronidazole treatment given at a dose of 15-20 mg/kg, PO, tid-qid. and may also involve administration of large volumes of interveneous polyionic fluids, with supplemental electrolytes (potassium, magnesium, and calcium), plasma or synthetic colloids for low oncotic pressure, anti-inflammatoires such as flunixin meglumine, and broad-spectrum antibiotics if the horse is leukopenic and at risk of bacterial translocation across the compromised GI tract. Polymyxin B may aid in binding systemic endotoxin.
Of these seventeen foals, fifteen developed loose stool or diarrhea lasting 3-4 days, and 2 died as a result of the infection. After observing the outbreak, the next foals were provided a formulation of 3×10^12 CFU Bifidobacterium longum subsp. infantis EVBL001 and 5×10^9 CFU of Lactobacillus plantarum EVLP001 every 12 hours. The two foals that were provided with the formulation at 12 hours of age developed a mild diarrhea, but recovered within 8 hours compared to 3-4 days with standard of care. […]

For `CO/N=C(\C(=O)N[C@@H]1C(=O)N2C(C(=O)O)=C(CSC(=O)c3ccco3)CS[C@H]12)c1csc(N)n1` [ceftiofur], the “effect on health outcome related to diarrhea” value was “did not affect health outcome”.
